# According to patent US8921358B2, “Apoptosis signal-regulating kinase 1 inhibitors” (Takeda Pharmaceutical Company Limited, priority 2008, dated 2014):
# Structures can show the parent of a compound that is named as a salt.
# Target: T1, human ASK1 (Homo sapiens, UniProt Q99683)
# T1 construct: a 2.2 kb DNA fragment containing an ASK1 gene was recovered from the gel; made in house; host or cells: Sf-21 insect cells, recombinant baculovirus (pFASTBAC1, Bac-to-Bac)
# T1 sequence (Q99683 649-1374 limits assumed): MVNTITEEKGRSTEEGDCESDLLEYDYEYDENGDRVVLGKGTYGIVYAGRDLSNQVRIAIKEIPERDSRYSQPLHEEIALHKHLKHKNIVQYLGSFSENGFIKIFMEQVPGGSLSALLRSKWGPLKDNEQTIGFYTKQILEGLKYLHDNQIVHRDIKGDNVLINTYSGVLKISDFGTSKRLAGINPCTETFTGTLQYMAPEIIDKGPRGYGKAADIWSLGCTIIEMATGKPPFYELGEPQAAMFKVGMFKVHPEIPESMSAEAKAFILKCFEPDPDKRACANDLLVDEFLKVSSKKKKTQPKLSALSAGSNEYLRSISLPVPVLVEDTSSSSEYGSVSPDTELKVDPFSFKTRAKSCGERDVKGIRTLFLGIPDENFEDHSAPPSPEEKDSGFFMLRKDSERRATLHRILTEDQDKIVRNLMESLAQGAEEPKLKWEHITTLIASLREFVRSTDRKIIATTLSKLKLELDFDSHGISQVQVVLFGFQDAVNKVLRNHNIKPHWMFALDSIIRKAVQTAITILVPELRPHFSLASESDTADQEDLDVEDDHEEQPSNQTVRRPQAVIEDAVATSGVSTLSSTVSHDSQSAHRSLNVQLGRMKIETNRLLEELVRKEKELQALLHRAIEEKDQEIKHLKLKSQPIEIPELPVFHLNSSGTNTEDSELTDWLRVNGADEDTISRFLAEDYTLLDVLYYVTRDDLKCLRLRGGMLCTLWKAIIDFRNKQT
# Test: Scintillation assay measuring inhibition of ASK1 phosphorylation of myelin basic protein
# Format: biochemical
# Settings: active ASK1 protein 30 ng, myelin basic protein 1 μg, [γ-32P]ATP, room temperature 30 min; values given as ranges; read-out: Enzyme Activity IC50
row,IC50 [nM],Compound
1,100 to 1000,"CC(C)(O)c1ccc(C(=O)Nc2cc(N3CC[C@@H](O)C3)n3nccc3n2)cc1 [Compound 69, (R)-4-(2-hydroxypropan-2-yl)-N-(7-(3-hydroxypyrrolidin-1-yl)pyrazolo[1,5-a]pyrimidin-5-yl)benzamide]"
2,< 100,"Cc1cc2nc(NC(=O)c3ccc(C(C)(C)CO)cc3)cc(-c3ccccc3)n2n1 [Compound 29, 4-(1-hydroxy-2-methylpropan-2-yl)-N-(2-methyl-7-phenylpyrazolo[1,5-a]pyrimidin-5-yl)benzamide]"
3,< 100,"CC(C)(C)c1ccc(C(=O)Nc2cc(N3CCOCC3)n3nccc3n2)cc1 [Compound 65, 4-tert-butyl-N-(7-morpholinopyrazolo[1,5-a]pyrimidin-5-yl)benzamide, trifluoroacetate salt]"
4,< 100,"COc1ccc(-c2cc(NC(=O)c3ccc(C(C)(C)C)cc3)nc3ccnn23)cc1 [Compound 9, 4-tert-Butyl-N-(7-(4-methoxyphenyl)pyrazolo[1,5-a]pyrimidin-5-yl)benzamide]"
5,< 100,"CC(C)(O)c1ccc(C(=O)Nc2cc(N3CCCC3)n3nccc3n2)cc1 [Compound 87, 4-(2-hydroxypropan-2-yl)-N-(7-(pyrrolidin-1-yl)pyrazolo[1,5-a]pyrimidin-5-yl)benzamide]"

# The remaining lines, values behind:
row,Compound,IC50 [nM]
1,"Cc1cc2nc(NC(=O)[C@@H]3C[C@H]3c3ccccc3)cc(-c3ccccc3)n2n1 [Compound 347, (1R,2R)—N-(2-Methyl-7-phenylpyrazolo[1,5-a]pyrimidin-5-yl)-2-phenylcyclopropanecarboxamide]",< 100
2,"Cc1cc2nc(NC(=O)c3ccc(C(C)(C)CO)cc3)cc(N3CC(O)C3)n2n1 [Compound 97, 4-(1-hydroxy-2-methylpropan-2-yl)-N-(7-(3-hydroxyazetidin-1-yl)-2-methylpyrazolo[1,5-a]pyrimidin-5-yl)benzamide]",100 to 1000
3,"CC(=O)NC1CCN(c2cc(NC(=O)[C@@H]3C[C@H]3c3ccc(F)cc3)nc3cc(C)nn23)CC1 (racemic) [Compound 361, N-(7-(4-acetamidopiperidin-1-yl)-2-methylpyrazolo[1,5-a]pyrimidin-5-yl)-2-(4-fluorophenyl)cyclopropanecarboxamide]",< 100
4,"CC(C)(O)c1ccc(C(=O)Nc2cc(N3CCC[C@@H](C(=O)O)C3)n3nccc3n2)cc1 [Compound 84, (R)-1-(5-(4-(2-hydroxypropan-2-yl)benzamido)pyrazolo[1,5-a]pyrimidin-7-yl)piperidine-3-carboxylic acid]",100 to 1000
